Measurements published in publication PMC4914250, “Cancer therapeutic approach based on conformational stabilization of mutant p53 protein by small peptides” (Oncotarget, 2016).

System: mutp53^R175H
Assay: ELISA of mutp53 DNA binding (p53RE oligonucleotide), H1299-p53^R175H cell extract
Assay type: biochemical, human
Settings: score 0-6 compared to positive control; mutp53 DNA binding
Experimental: (§1) Cell extracts were added to ELISA plates coated with the indicated antibodies to allow mutp53 to react with the peptides and antibodies. αp53-HRP Ab was used for assessment of p53 levels. Numbers represent ratio of absorbance between the PAb1620 and PAb240 samples. All reads were normalized to the control […] reading of each extract. MCF7 (WTp53) and H1299-mutp53^A135V (tsp53) cells were used as positive controls for the WTp53 conformation (1620/240 ratio equals or exceeds 5:1). […] 96 well plates were coated with anti-p53 antibody, cell extracts containing p53 were reacted with oligonucleotides that contain a p53RE consensus binding site, labeled with biotin, in the presence or absence (NT) of test peptides. Streptavidin-HRP is used to quantify the amount of oligos in the well. TMB assay was performed to determine bound mutp53 levels (450nm). MCF7 and the H1299-mutp53^A135V(TS) cells serve as positive controls for WTp53. C.and D. - Bar graphs illustrating the effect of various selected peptides on mut-p53 dependent expression on cell viability. […] D, ES2 cells expressing endogenous mutp53 (blue bars) and ES2 cells knocked out for p53 by CRISPR construct (light blue bars). Cell lines were treated with selected peptides, Cis-platinum was used as positive control for cell death. 48 hours after treatment, cells were washed with PBS, and the remaining attached cells were stained with Crystal violet and washed 4 times with PBS. Stained cells were dissolved in 10% acetic acid and plates were taken for optical density measurement at […]. TEXT PRINTED IN THE PICTURE: (A) pCAP1: 0.87 | (A) pCAP2: 0.53 | (A) pCAP3: 0.59 | (A) pCAP4: 0.59 | (A) pCAP5: 0.60 | (A) pCAP6: 0.75 | (A) pCAP23: 1.06 | (A) pCAP24: 1.44 | (A) pCAP36: 1.25 | (A) pCAP47: 1.54 | (A) pCAP54: 1.54 | (A) pCAP60: 2.73 | (A) pCAP68: 2.22 | (A) pCAP83: 1.56 | (A) pCAP97: 2.45 DOUBTS OF THE COPYIST ABOUT THIS PICTURE: Panel A: the numbers over the bars are printed very small, rotated and blurred, so 3, 5, 6, 8 and 9 cannot be told apart with certainty. All values are best readings: pCAP1 0.87, pCAP2 0.53, pCAP3 0.59, pCAP4 0.59, pCAP5 0.60, pCAP6 0.75, pCAP23 1.06, pCAP24 1.44, pCAP36 1.25, pCAP47 1.54, pCAP54 1.54, pCAP60 2.73, pCAP68 2.22, pCAP83 1.56, pCAP97 2.45 / Panel A: the picture prints no measure with the numbers over the bars, so they are given as bare numbers / Panel A: numbers are also printed over the controls, which are not substances and are left out of lines. Best readings: NT 0.60, 60° 30'' 0.48, 60° 1' 0.37, 60° 3' 0.13, 60° 10' 0.05, MCF7 3.32, H1299TS 3.25
Next, we assessed the ability of our selected peptides to restore sequence-specific DNA binding to mutp53. To that end we employed an ELISA kit (R&D) in which cell extracts containing p53 are reacted with a biotinylated p53RE oligonucleotide and then incubated in wells coated with anti-p53 antibody, which is expected to trap the p53 protein and its associated p53RE DNA. The amount of p53RE retained in each well via p53 binding is quantified by incubation with streptavidin-HRP. […] Again, extracts of MCF7 and H1299-tsp53^A135V cells served as positive controls for WTp53 DNA binding activity. […] Importantly, there was substantial overlap between the peptides that stabilized the WT conformation (Figure 2A) and those that increased specific DNA binding (Figure 2B), further reinforcing the conclusion that those peptides stabilize mutp53 in a functional state. This was not seen with the randomly selected peptides 1-6 (black bars).
For these experiments, a commercial p53/DNA binding kit of “R&D” (Cat-DYC1355-5 Lot-1273366FA) was used, in accordance with manufacturer guide lines. Briefly, 96 well plates we coated with anti-p53 antibody overnight. Cell extracts containing p53 are reacted with an oligonucleotide that contains a p53 consensus binding site (provided in the kit), labeled with Biotin, in the presence or absence (NT) of test peptides. […]

Substance | DNA H1299
LHSKTLVL [pCAP-17] | 3
myr-RRKILFIRLMHNKH [pCAP-227, myristoylated peptide, similarity to GAS2] | 3
LRCLLLLIGRVGRRRRRRRR [pCAP-24R, pCAP-24 with poly arginine tail] | 3
HSSHHHPVHSWN [pCAP-83] | 5
IRILMFLIGCGR [pCAP-23] | 1
IRILMFLIGCGRRRRRRRRR [pCAP-23R, pCAP-23 with poly arginine tail] | 3
LRCLLLLIGRVG [pCAP-24] | 3
YPTQGHLR [pCAP-36] | 2

System: ES2 ovarian cancer cells
Assay: Crystal violet viability assay, ES2
Assay type: cell-based, human
Settings: ES2 (mp53^S241F) versus ES2 p53KO, 48 h
Experimental: as §1
(§2) We also performed a similar analysis on ES2 ovarian cancer cells, which express endogenous mp53^S241F, compared to ES2 cells in which p53 was stably knocked out using CRISPR/Cas9 (ES2 p53KO Figure S1F), to control for specificity for mutp53 (Figure 2D). In ES2 cells, too, some of the peptides caused a significant reduction in cell numbers, more prominent in the mutp53 expressing cells than in their p53KO counterparts. […] Overall, we performed this analysis on several different mutp53-expressing human cancer cell lines, and the results are summarized in Table S3. Based on this comprehensive picture, we reduced the number of most promising candidate lead peptides to 30. These peptides were then synthesized with an 8 arginine C-terminal tail for enhanced delivery across cell membranes (pCAPs 130-160); for clarity, peptides are referred to by their original number, with an R for poly arginine (see Table S3).
(§3) Cells were cultured in 96 wells plates with 2500-4000 cells/well. Serial dilutions of different peptides were added and the plates incubated for additional 48 h at 37°C. Then medium was removed and cell viability was determined by staining the cells with crystal violet (0.05%) in methanol/PBS (1:5, v/v), for 10 min, followed by 3 washes with PBS. 10% acetic acid was added to each well for 10 min. OD was determined at 595 nm.

Substance | mutp53-specific effect on cell number, ES2
HSSHHHPVHSWN [pCAP-83] | mutp53-specific effect
LRCLLLLIGRVG [pCAP-24] | mutp53-specific effect
YPTQGHLR [pCAP-36] | mutp53-specific effect

Same assay, conditions: score 0-6 compared to positive control, 48 h

Substance | Viability ES2
EVTFRHSVV [pCAP-1, randomly selected peptide used as inert comparison] | 4
HHPWTHHQRWS [pCAP-20] | 3
LHSKTLVL [pCAP-17] | 3
myr-RRKILFIRLMHNKH [pCAP-227, myristoylated peptide, similarity to GAS2] | 5
LRCLLLLIGRVGRRRRRRRR [pCAP-24R, pCAP-24 with poly arginine tail] | 3
IRILMFLIGCGR [pCAP-23] | 3
IRILMFLIGCGRRRRRRRRR [pCAP-23R, pCAP-23 with poly arginine tail] | 3
YPTQGHLR [pCAP-36] | 3

System: MDA
Assay: Crystal violet viability assay, MDA
Assay type: cell-based, human
Settings: score 0-6 compared to positive control, 48 h
Excerpt: as §2, §3

Substance | Viability MDA
myr-RRKILFIRLMHNKH [pCAP-227, myristoylated peptide, similarity to GAS2] | 3
LRCLLLLIGRVGRRRRRRRR [pCAP-24R, pCAP-24 with poly arginine tail] | 4
YPTQGHLR [pCAP-36] | 4

System: EP156
Assay: Crystal violet viability assay, EP156
Assay type: cell-based
Settings: score 0-6 compared to positive control, 48 h
Excerpt: as §2, §3

Substance | Viability EP156
LHSKTLVL [pCAP-17] | 4
HANLHHT [pCAP-87] | 4
myr-RRKILFIRLMHNKH [pCAP-227, myristoylated peptide, similarity to GAS2] | 4
LRCLLLLIGRVGRRRRRRRR [pCAP-24R, pCAP-24 with poly arginine tail] | 4
HSSHHHPVHSWN [pCAP-83] | 4
IRILMFLIGCGR [pCAP-23] | 4
IRILMFLIGCGRRRRRRRRR [pCAP-23R, pCAP-23 with poly arginine tail] | 4
LRCLLLLIGRVG [pCAP-24] | 4
YPTQGHLR [pCAP-36] | 4

System: H1299 cells expressing mutp53^R175H
Assay: Crystal violet viability assay, H1299
Assay type: cell-based
Settings: H1299 mutp53^R175H versus p53-null, 48 h
Experimental: Cell extracts were added to ELISA plates coated with the indicated antibodies to allow mutp53 to react with the peptides and antibodies. αp53-HRP Ab was used for assessment of p53 levels. Numbers represent ratio of absorbance between the PAb1620 and PAb240 samples. All reads were normalized to the control PAb241 reading of each extract. MCF7 (WTp53) and H1299-mutp53^A135V (tsp53) cells were used as positive controls for the WTp53 conformation (1620/240 ratio equals or exceeds 5:1). […] 96 well plates were coated with anti-p53 antibody, cell extracts containing p53 were reacted with oligonucleotides that contain a p53RE consensus binding site, labeled with biotin, in the presence or absence (NT) of test peptides. Streptavidin-HRP is used to quantify the amount of oligos in the well. TMB assay was performed to determine bound mutp53 levels (450nm). MCF7 and the H1299-mutp53^A135V(TS) cells serve as positive controls for WTp53. C.and D. - Bar graphs illustrating the effect of various selected peptides on mut-p53 dependent expression on cell viability. […] D, ES2 cells expressing endogenous mutp53 (blue bars) and ES2 cells knocked out for p53 by CRISPR construct (light blue bars). Cell lines were treated with selected peptides, Cis-platinum was used as positive control for cell death. 48 hours after treatment, cells were washed with PBS, and the remaining attached cells were stained with Crystal violet and washed 4 times with PBS. Stained cells were dissolved in 10% acetic acid and plates were taken for optical density measurement at 595nM.
This simple assay measures the total number of cells, thus reflecting the combination of both cell death and growth arrest effects. […] After 48 hours of treatment cells were stained with crystal violet and OD at 595nm was determined.
Values on the Y-axis reflect the number of cells in the treated wells, normalized to the non-treated samples (NT; red bars).

Substance | mutp53-specific effect on cell number, H1299
HSSHHHPVHSWN [pCAP-83] | mutp53-specific effect
LRCLLLLIGRVG [pCAP-24] | mutp53-specific effect
YPTQGHLR [pCAP-36] | mutp53-specific effect

Same assay, conditions: score 0-6 compared to positive control, 48 h

Substance | Viability H1299
EVTFRHSVV [pCAP-1, randomly selected peptide used as inert comparison] | 1
HANLHHT [pCAP-87] | 3
myr-RRKILFIRLMHNKH [pCAP-227, myristoylated peptide, similarity to GAS2] | 5
LRCLLLLIGRVGRRRRRRRR [pCAP-24R, pCAP-24 with poly arginine tail] | 4
HSSHHHPVHSWN [pCAP-83] | 4
IRILMFLIGCGR [pCAP-23] | 3
IRILMFLIGCGRRRRRRRRR [pCAP-23R, pCAP-23 with poly arginine tail] | 3
YPTQGHLR [pCAP-36] | 2

System: H23
Assay: Crystal violet viability assay, H23
Assay type: cell-based, human
Settings: score 0-6 compared to positive control, 48 h
Excerpt: as §2, §3

Substance | Viability H23
HHPWTHHQRWS [pCAP-20] | 4
myr-RRKILFIRLMHNKH [pCAP-227, myristoylated peptide, similarity to GAS2] | 3
